Data taken from patent US4579940A, “14-de(hydroxymethyl)-mycaminosyltylonolide derivatives” (Toyo Jozo Kabushiki Kaisha, priority 1983, dated 1986).
≈ marks a conversion by molar mass, not a printed value. Read-outs that look alike come from different tables or passages of the source.

Experiments:
Assay type in all cases: cell-based
[1] = tested on: Kleb. pneumoniae ATCC10031; assay: minimum inhibitory concentration (MIC), Kleb. pneumoniae ATCC10031; conditions: Klebsiella pneumoniae
Staph. aureus MS353 = assay: minimum inhibitory concentration (MIC), Staph. aureus MS353; conditions: Staphylococcus aureus
Strept. agalactiae 1020 = assay: minimum inhibitory concentration (MIC), Strept. agalactiae 1020; conditions: Streptococcus agalactiae
[2] = tested on: Staph epidermidis ap-al-l; assay: minimum inhibitory concentration (MIC), Staph epidermidis
Strept. faecalis 1501 = assay: minimum inhibitory concentration (MIC), Strept. faecalis 1501; conditions: Enterococcus faecalis
Strept. pyogenes 1022 = assay: minimum inhibitory concentration (MIC), Strept. pyogenes 1022*; conditions: Streptococcus pyogenes, macrolide-antibiotics resistant
From the text: (§1) In Table 1, the abbreviations have the following meanings:
(§2) The test organisms were macrolide-antibiotics resistant A-group stains (clinical isolates of strains resistant to erythromycin, olenadomycin and 16-membered macrolide antibiotics).

Staph. aureus ATCC6538P = assay: minimum inhibitory concentration (MIC), Staph. aureus ATCC6538P; conditions: Staphylococcus aureus
Strept. pyogenes N.Y.5 = assay: minimum inhibitory concentration (MIC), Strept. pyogenes N.Y.5; conditions: Streptococcus pyogenes
From the text: In Table 1, the abbreviations have the following meanings: […]

Proteus vulgaris OX19 = assay: minimum inhibitory concentration (MIC), Proteus vulgaris OX19
E. coli NIHJ-JC2 = assay: minimum inhibitory concentration (MIC), E. coli NIHJ-JC2; conditions: Escherichia coli, NIHJJC2
Serratia marcescens = assay: minimum inhibitory concentration (MIC), Serratia marcescens
Staph. aureus MS353C36 = assay: minimum inhibitory concentration (MIC), Staph. aureus MS353C36*; conditions: Staphylococcus aureus, macrolide-antibiotics resistant
From the text: as §1, §2

[3] = Staph epidermidis ap-al-l, read-out: MIC

SMILES	MIC [1] [µg/mL]	MIC (Staph. aureus MS353) [µg/mL]	MIC (Strept. agalactiae 1020) [µg/mL]	MIC [2, 3] [µg/mL]	MIC (Strept. faecalis 1501) [µg/mL]	MIC (Strept. pyogenes 1022) [µg/mL]	MIC (Staph. aureus ATCC6538P) [µg/mL]	MIC (Strept. pyogenes N.Y.5) [µg/mL]	MIC (Proteus vulgaris OX19) [µg/mL]	MIC (E. coli NIHJ-JC2) [µg/mL]	MIC (Serratia marcescens) [µg/mL]	MIC (Staph. aureus MS353C36) [µg/mL]	MIC [2] [µg/mL]
CCC1OC(=O)CC(O)C(C)C(OC2OC(C)C(OC(C)=O)C(N(C)C)C2OC(C)=O)C(CC(OC)OC)CC(C)C(=O)C=CC(C)=CC1CO (stereo not drawn) [A, 2',4'-di-O-acetyl-O-mycaminosyltylonolide dimethylacetal]	1.6 (≈ 2.2 µM)	0.2 (≈ 0.275 µM)	≤ 0.05	0.1 (≈ 0.137 µM)	0.2 (≈ 0.275 µM)	> 100	0.2 (≈ 0.275 µM)	≤ 0.05	6.3 (≈ 8.66 µM)	25 (≈ 34.3 µM)	12.5 (≈ 17.2 µM)		
CCC1CC=C(C)C=CC(=O)C(C)CC(CC=O)C(OC2OC(C)C(O)C(N(C)C)C2O)C(C)C(O)CC(=O)O1 (stereo not drawn) [C, 14-de(hydroxymethyl)-O-mycaminosyltylonolide]		≤ 0.05	≤ 0.05	≤ 0.05	0.1 (≈ 0.176 µM)	> 100	≤ 0.05	≤ 0.05				≤ 0.05	
CCC1OC(=O)CC(O)C(C)C(OC2OC(C)CC(N(C)C)C2OC(C)=O)C(CC=O)CC(C)C(=O)C=CC(C)=CC1CO (stereo not drawn) [D, 2'-O-acetyl-4'-deoxy-O-mycaminosyltylonolide]		0.2 (≈ 0.321 µM)	≤ 0.05	≤ 0.05	0.2 (≈ 0.321 µM)	> 100	0.2 (≈ 0.321 µM)	≤ 0.05				0.2 (≈ 0.321 µM)	
CCC1OC(=O)CC(O)C(C)C(OC2OC(C)CC(N(C)C)C2OC(C)=O)C(CC(OC)OC)CC(C)C(=O)C=CC(C)=CC1CO (stereo not drawn) [E, 2'-O-acetyl-4'-deoxy-O-mycaminosyltylonolide dimethylacetal]		0.1 (≈ 0.149 µM)	≤ 0.05	≤ 0.05	≤ 0.05	> 100	0.1 (≈ 0.149 µM)	≤ 0.05				0.1 (≈ 0.149 µM)	
CC[C@H]1OC(=O)[C@H](C)[C@@H](O[C@H]2C[C@@](C)(OC)[C@@H](O)[C@H](C)O2)[C@H](C)[C@@H](O[C@@H]2O[C@H](C)C[C@H](N(C)C)[C@H]2O)[C@](C)(O)C[C@@H](C)C(=O)[C@H](C)[C@@H](O)[C@]1(C)O [EM, erythromycin, reference compound]		0.2 (≈ 0.273 µM)	≤ 0.05			> 100	0.2 (≈ 0.273 µM)	≤ 0.05				> 100	0.1 (≈ 0.136 µM)
CCC1CC=C(C)C=CC(=O)C(C)CC(CC=O)C(OC2OC(C)CC(N(C)C)C2O)C(C)C(O)CC(=O)O1 (stereo not drawn) [F, 14-de(hydroxymethyl)-4'-deoxy-O-mycaminosyltylonolide]		0.1 (≈ 0.181 µM)	≤ 0.05	≤ 0.05	0.2 (≈ 0.363 µM)	> 100	0.1 (≈ 0.181 µM)	≤ 0.05				0.2 (≈ 0.363 µM)	
CCC1OC(=O)CC(O)C(C)C(OC2OC(C)C(O)C(N(C)C)C2O)C(CC=O)CC(C)C(=O)C=CC(C)=CC1C(=O)OC(C)C (stereo not drawn) [G, 14-isopropyloxycarbonyl-14-de(hydroxymethyl)-O-mycaminosyltylonolide]		0.4 (≈ 0.612 µM)	≤ 0.05	0.2 (≈ 0.306 µM)	0.2 (≈ 0.306 µM)	> 100	0.4 (≈ 0.612 µM)	≤ 0.05				0.8 (≈ 1.22 µM)	
CCOC(=O)C1C=C(C)C=CC(=O)C(C)CC(CC=O)C(OC2OC(C)C(O)C(N(C)C)C2O)C(C)C(O)CC(=O)OC1CC (stereo not drawn) [H, 14-ethyloxycarbonyl-14-de(hydroxymethyl)-O-mycaminosyltylonolide]		0.2 (≈ 0.313 µM)	≤ 0.05	0.1 (≈ 0.156 µM)	≤ 0.05	> 100	0.2 (≈ 0.313 µM)	≤ 0.05				0.4 (≈ 0.625 µM)	
CC[C@H]1OC(=O)C[C@@H](O)[C@H](C)[C@@H](O[C@@H]2O[C@H](C)[C@@H](O[C@H]3C[C@@](C)(O)[C@@H](O)[C@H](C)O3)[C@H](N(C)C)[C@H]2O)[C@@H](CC=O)C[C@@H](C)C(=O)/C=C/C(C)=C/[C@@H]1CO[C@@H]1O[C@H](C)[C@@H](O)[C@@H](OC)[C@H]1OC [TS, tylosin, reference compound]			0.4 (≈ 0.437 µM)		1.6 (≈ 1.75 µM)	> 100				> 100		> 100	0.4 (≈ 0.437 µM)
